pEC50: −log10 of the molar value. Like-named read-outs stand apart in the source and are kept apart here.
Biological target: T1, human APJ receptor (Homo sapiens, UniProt P35414)
T1 construct: expressed in transfected cells; host or cells: HEK293
T1 sequence (P35414 1-380): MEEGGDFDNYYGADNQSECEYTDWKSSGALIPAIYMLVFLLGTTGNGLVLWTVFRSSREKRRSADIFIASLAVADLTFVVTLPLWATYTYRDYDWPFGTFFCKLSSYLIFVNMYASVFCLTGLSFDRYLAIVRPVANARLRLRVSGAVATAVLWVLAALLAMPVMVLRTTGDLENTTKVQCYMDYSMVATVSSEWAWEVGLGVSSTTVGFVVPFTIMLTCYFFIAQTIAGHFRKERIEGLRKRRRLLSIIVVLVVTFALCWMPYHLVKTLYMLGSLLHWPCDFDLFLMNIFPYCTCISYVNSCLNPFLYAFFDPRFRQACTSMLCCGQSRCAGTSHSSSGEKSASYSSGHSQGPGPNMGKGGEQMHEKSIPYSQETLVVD
Test: Intracellular cAMP Accumulation Assay (APJ hcAMP, HTRF)
Type: cell-based
Summary of the method: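 Stably transfected HEK293 cells (5,000/well) incubated 30 min at room temperature with serially diluted compound, […] and 2 μM forskolin. cAMP measured by HTRF after 60 min with detection reagents, quantified against a cAMP standard curve; EC50 from variable-slope sigmoidal fit of inhibition of forskolin-stimulated cAMP.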

[1] = human APJ, intracellular cAMP accumulation, read-out: hAPJ cAMP EC50 Potency range
[2] = read-out: hAPJ cAMP EC50 Potency range
[3] = human APJ, cAMP accumulation, potency range class, read-out: hAPJ cAMP EC50 Potency range

Question: How did the pEC50 [1] turn out when `CCOCc1nc(=O)c(C(=O)N2CCC(c3cccc(Cl)c3)C2)c(O)n1-c1c(OC)cccc1OC` (racemic) [Example 26, 5-(3-(3-chlorophenyl)pyrrolidine-1-carbonyl)-1-(2,6-dimethoxyphenyl)-2-(ethoxymethyl)-6-hydroxypyrimidin-4(1H)-one] was run?
Answer: 8.00 to 11.00

Question: With `CCOCc1nc(=O)c(C(=O)N2CCC(c3ncc(F)cc3F)C2)c(O)n1-c1c(OC)cccc1OC` (single isomer, unassigned) [Example 372, 5-(3-(3,5-difluoropyridin-2-yl)pyrrolidine-1-carbonyl)-1-(2,6-dimethoxyphenyl)-2-(ethoxymethyl)-6-hydroxypyrimidin-4(1H)-one] as the compound, how does the pEC50 [2] read?
Answer: 8.00 to 11.00

Question: How did the pEC50 [1] turn out when `CCCCc1nc(=O)c(C(=O)N2Cc3ccccc3C2)c(O)n1-c1c(OC)cccc1OC` [Example 66, 2-butyl-5-(2,3-dihydro-1H-isoindole-2-carbonyl)-1-(2,6-dimethoxyphenyl)-6-hydroxy-1,4-dihydropyrimidin-4-one] was run?
Answer: 8.00 to 11.00

Question: With `CCCCc1nc(=O)c(C(=O)N2CCC(c3ccc(Cl)cn3)C2)c(O)n1-c1c(OC)cccc1OC` (stereo not drawn) [Example 1, 2-Butyl-5-(3-(5-chloropyridin-2-yl)pyrrolidine-1-carbonyl)-1-(2,6-dimethoxyphenyl)-6-hydroxypyrimidin-4(1H)-one] as the compound, how does the pEC50 read?
Answer: 8.00 to 11.00

Question: How did the pEC50 [1] turn out when `CC[C@@H](c1cc(F)cc(F)c1)n1c(-c2ccn(CC)n2)nc(=O)c(C(=O)N2CCC(c3ncccc3F)C2)c1O` (single isomer, unassigned) [Example 186] was run?
Answer: 8.00 to 11.00

Question: How did the pEC50 [1] turn out when `COc1cccc(OC)c1-n1c(CCC2CC2)nc(=O)c(C(=O)N2CCC(c3ccc(Cl)cn3)C2)c1O` (single isomer, unassigned) [Example 170, 5-[3-(5-chloropyridin-2-yl)pyrrolidine-1-carbonyl]-2-(2-cyclopropylethyl)-1-(2,6-dimethoxyphenyl)-6-hydroxy-1,4-dihydropyrimidin-4-one] was run?
Answer: 8.00 to 11.00

Question: With `CCCCc1nc(=O)c(C(=O)N2CC[C@H](c3ccccc3)C2)c(O)n1[C@H](CC)c1ccccc1` [Example 124, 2-butyl-6-hydroxy-3-[(1R)-1-phenylpropyl]-5-[(3R)-3-phenylpyrrolidine-1-carbonyl]-3,4-dihydropyrimidin-4-one] as the compound, how does the pEC50 [1] read?
Answer: 8.00 to 11.00

Question: How did the pEC50 [2] turn out when `CCOCc1nc(=O)c(C(=O)N2CCC(c3ccccc3F)CC2)c(O)n1-c1c(OC)cccc1OC` [Example 379, 1-(2,6-dimethoxyphenyl)-2-(ethoxymethyl)-5-(4-(2-fluorophenyl)piperidine-1-carbonyl)-6-hydroxypyrimidin-4(1H)-one] was run?
Answer: 8.00 to 11.00

Question: How did the pEC50 [3] turn out when `COc1cccc(OC)c1-n1c(-c2cccc(Cl)c2)nc(=O)c(C(=O)N2CCC(c3ccccc3C#N)C2)c1O` (single isomer, unassigned) [Example 237, 2-{1-[2-(3-chlorophenyl)-1-(2,6-dimethoxyphenyl)-6-hydroxy-4-oxo-1,4-dihydropyrimidine-5-carbonyl]pyrrolidin-3-yl}benzonitrile] was run?
Answer: 8.00 to 11.00

Question: How did the pEC50 [1] turn out when `CC[C@@H](c1cc(F)cc(F)c1)n1c(-c2cnn(C)c2)nc(=O)c(C(=O)N2CCC(c3ccc(F)cn3)C2)c1O` (single isomer, unassigned) [Example 191] was run?
Answer: 8.00 to 11.00

Question: With `CCc1cccc(CC)c1-n1c(-c2csc(C(C)C)n2)nc(=O)c(C(=O)N2CCC(c3ncc(F)cc3F)C2)c1O` (single isomer, unassigned) [Example 297, 1-(2,6-diethylphenyl)-5-[3-(3,5-difluoropyridin-2-yl)pyrrolidine-1-carbonyl]-6-hydroxy-2-[2-(propan-2-yl)-1,3-thiazol-4-yl]-1,4-dihydropyrimidin-4-one] as the compound, how does the pEC50 [3] read?
Answer: 8.00 to 11.00

Question: With `COc1cccc(OC)c1-n1c(-c2ccnc(C)c2)nc(=O)c(C(=O)N2CCC(c3c(F)cccc3F)C2)c1O` (single isomer, unassigned) [Example 257, 5-[3-(2,6-difluorophenyl)pyrrolidine-1-carbonyl]-1-(2,6-dimethoxyphenyl)-6-hydroxy-2-(2-methylpyridin-4-yl)-1,4-dihydropyrimidin-4-one] as the compound, how does the pEC50 [3] read?
Answer: 8.00 to 11.00

Question: `COc1cccc(OC)c1-n1c(-c2ccc(F)c(C)c2)nc(=O)c(C(=O)N2CCC(c3ncc(F)cc3F)C2)c1O` (single isomer, unassigned) [Example 256, 5-[3-(3,5-difluoropyridin-2-yl)pyrrolidine-1-carbonyl]-1-(2,6-dimethoxyphenyl)-2-(4-fluoro-3-methylphenyl)-6-hydroxy-1,4-dihydropyrimidin-4-one] was tested. Which pEC50 [3] did it give?
Answer: 8.00 to 11.00

Question: With `CCOCc1nc(=O)c(C(=O)N2CCC(Oc3ccc(Cl)cc3)CC2)c(O)n1-c1c(OC)cccc1OC` [Example 377, 5-(4-(4-chlorophenoxy)piperidine-1-carbonyl)-1-(2,6-dimethoxyphenyl)-2-(ethoxymethyl)-6-hydroxypyrimidin-4(1H)-one] as the compound, how does the pEC50 [2] read?
Answer: 8.00 to 11.00

Question: With `CCCCc1nc(=O)c(C(=O)N2CC[C@H](c3ccccc3)C2)c(O)n1[C@@H](C)C1CC1` [Example 126, 2-butyl-3-[(1S)-1-cyclopropylethyl]-6-hydroxy-5-[(3R)-3-phenylpyrrolidine-1-carbonyl]-3,4-dihydropyrimidin-4-one] as the compound, how does the pEC50 [1] read?
Answer: 8.00 to 11.00

Question: `CCn1ccc(-c2nc(=O)c(C(=O)N3CC[C@@H](c4ccccc4)C3)c(O)n2-c2cccc(C(C)C)c2)n1` [Example 288, 2-(1-ethyl-1H-pyrazol-3-yl)-6-hydroxy-5-[(3S)-3-phenylpyrrolidine-1-carbonyl]-1-[3-(propan-2-yl)phenyl]-1,4-dihydropyrimidin-4-one] was tested. Which pEC50 [3] did it give?
Answer: 8.00 to 11.00

Question: `CCc1cccc(CC)c1-n1c(-c2ccn(C3CC3)n2)nc(=O)c(C(=O)N2CCC(c3ccc(F)cn3)C2)c1O` (single isomer, unassigned) [Example 328, 2-(1-cyclopropyl-1H-pyrazol-3-yl)-1-(2,6-diethylphenyl)-5-[3-(5-fluoropyridin-2-yl)pyrrolidine-1-carbonyl]-6-hydroxy-1,4-dihydropyrimidin-4-one] was tested. Which pEC50 [3] did it give?
Answer: 8.00 to 11.00

Question: `COc1cccc(OC)c1-n1c(COC(C)C)nc(=O)c(C(=O)N2CC(c3ccccc3)C2)c1O` [Example 110, 1-(2,6-dimethoxyphenyl)-6-hydroxy-5-(3-phenylazetidine-1-carbonyl)-2-[(propan-2-yloxy)methyl]-1,4-dihydropyrimidin-4-one] was tested. Which pEC50 [1] did it give?
Answer: 7.00 to 8.00

Question: How did the pEC50 [3] turn out when `COc1cccc(OC)c1-n1c(-c2cncc(Cl)c2)nc(=O)c(C(=O)N2CCC(c3ccccc3C#N)C2)c1O` (single isomer, unassigned) [Example 243, 2-{1-[2-(5-chloropyridin-3-yl)-1-(2,6-dimethoxyphenyl)-6-hydroxy-4-oxo-1,4-dihydropyrimidine-5-carbonyl]pyrrolidin-3-yl}benzonitrile] was run?
Answer: 8.00 to 11.00

Question: `COc1ccnc(-c2nc(=O)c(C(=O)N3CCC(c4ccc(F)cc4F)C3)c(O)n2-c2c(OC)cccc2OC)c1` (single isomer, unassigned) [Example 278, 5-[3-(2,4-difluorophenyl)pyrrolidine-1-carbonyl]-1-(2,6-dimethoxyphenyl)-6-hydroxy-2-(4-methoxypyridin-2-yl)-1,4-dihydropyrimidin-4-one] was tested. Which pEC50 [3] did it give?
Answer: 8.00 to 11.00

Question: How did the pEC50 turn out when `CCCCc1nc(=O)c(C(=O)N2CC[C@H](c3ccccc3)C2)c(O)n1-c1c(CC)cccc1CC` [Example 90, 2-butyl-3-(2,6-diethylphenyl)-6-hydroxy-5-[(3R)-3-phenylpyrrolidine-1-carbonyl]-3,4-dihydropyrimidin-4-one] was run?
Answer: 8.00 to 11.00

Question: How did the pEC50 [3] turn out when `CCn1ccc(-c2nc(=O)c(C(=O)N3CC[C@@H](c4ccccc4)C3)c(O)n2-c2c(OC)cccc2OC)n1` [Example 286, 1-(2,6-dimethoxyphenyl)-2-(1-ethyl-1H-pyrazol-3-yl)-6-hydroxy-5-[(3S)-3-phenylpyrrolidine-1-carbonyl]-1,4-dihydropyrimidin-4-one] was run?
Answer: 8.00 to 11.00

Question: With `CCCCc1nc(=O)c(C(=O)N2CCC(Cc3ccccc3)C2)c(O)n1-c1c(OC)cccc1OC` (racemic) [Example 73, 5-(3-benzylpyrrolidine-1-carbonyl)-2-butyl-1-(2,6-dimethoxyphenyl)-6-hydroxy-1,4-dihydropyrimidin-4-one] as the compound, how does the pEC50 [1] read?
Answer: 8.00 to 11.00

Question: With `COc1cccc(OC)c1-n1c(-c2ccn(C)n2)nc(=O)c(C(=O)N2CCC(c3ncc(Cl)cc3F)C2)c1O` (single isomer, unassigned) [Example 259, 5-[3-(5-chloro-3-fluoropyridin-2-yl)pyrrolidine-1-carbonyl]-1-(2,6-dimethoxyphenyl)-6-hydroxy-2-(1-methyl-1H-pyrazol-3-yl)-1,4-dihydropyrimidin-4-one] as the compound, how does the pEC50 [3] read?
Answer: 8.00 to 11.00

Question: With `CCCCc1nc(=O)c(C(=O)N2CC[C@@H](c3ccccc3)C2)c(O)n1[C@H](C)c1ccccc1OC` [Example 135, 2-butyl-6-hydroxy-3-[(1R)-1-(2-methoxyphenyl)ethyl]-5-[(3S)-3-phenylpyrrolidine-1-carbonyl]-3,4-dihydropyrimidin-4-one] as the compound, how does the pEC50 [1] read?
Answer: 7.00 to 8.00

Question: How did the pEC50 [3] turn out when `CCCCc1nc(=O)c(C(=O)N2CCC(c3ncc(F)cc3F)C2)c(O)n1[C@@H](COC)c1ccccc1` (stereo partly drawn) [Example 349, 2-butyl-5-[3-(3,5-difluoropyridin-2-yl)pyrrolidine-1-carbonyl]-6-hydroxy-3-[(1R)-2-methoxy-1-phenylethyl]-3,4-dihydropyrimidin-4-one] was run?
Answer: 8.00 to 11.00

Question: `COc1cccc(OC)c1-n1c(CCC2CC2)nc(=O)c(C(=O)N2CC[C@@H](c3ccccc3)C2)c1O` [Example 4, (S)-2-(2-Cyclopropylethyl)-1-(2,6-dimethoxyphenyl)-6-hydroxy-5-(3-phenylpyrrolidine-1-carbonyl)pyrimidin-4(1H)-one] was tested. Which pEC50 (HEK293 cells stably expressing human APJ receptor, inhibition of forskolin-mediated cAMP production, read-out: Human APJ cAMP EC50 potency range) did it give?
Answer: 8.00 to 11.00

— patent US10590113B2, “6-hydroxy-4-oxo-1,4-dihydropyrimidine-5-carboxamides as APJ agonists” (priority 2016, dated 2020)
